Common to all, as to type: cell-based
The test system of experiment [1] is HCT-116 MTAP(-/-)deleted cells. Nature of the experiment: Inhibitory activity on proliferation of HCT-116 MTAP(-/-)deleted cells (Cell-Titer Glo). The following applies: Homo sapiens, 144 h, incubated 6 d, 0-1,000 nM. In short, it runs like this: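 HCT-116 MTAP(-/-) cells in RPMI 1640 with 10% FBS were seeded overnight, then exposed to compound (10 points, 2.5-fold dilutions from 1,000 nM; 0.2% DMSO) for 6 d at 37 °C. Viability was read by CellTiter-Glo luminescence.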

The subject of experiment [2] is LU99 MTAP overexpressing cells. Nature of the experiment: Inhibitory activity on proliferation of LU99 MTAP overexpressing cells (Cell-Titer Glo). The following applies: Homo sapiens, Lu-99, 144 h, incubated 6 d, 0-10,000 nM. In short, it runs like this: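 After overnight seeding, LU99 cells overexpressing MTAP were exposed to compound at 0-10,000 nM (10 points, 2.5-fold dilutions, 0.2% DMSO) for 6 d at 37°C, 5% CO2. Viability read by Cell-Titer Glo luminescence.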

Experiment [3] concerns LU99 MTAP(-/-)deleted cells. Nature of the experiment: Inhibitory activity on proliferation of LU99 MTAP(-/-)deleted cells (Cell-Titer Glo). As to conditions: Homo sapiens, Lu-99, 144 h, incubated 6 d, 0-1,000 nM. In a few lines:
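Log-phase MTAP-deleted LU99 cells in 10%-FBS medium were plated overnight. Compound was then added at final 0–1,000 nM (10 points, 2.5-fold dilution from 1,000 nM) in 0.2% DMSO.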

Experiment [4] relates to HCT-116 wild-type cells. The experiment can be described thus: Inhibitory activity on proliferation of HCT-116 wild-type cells (Cell-Titer Glo). The following applies: Homo sapiens, 144 h, incubated 6 d, 0-10,000 nM. In a few lines: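 HCT-116 wild-type cells in RPMI-1640 with 10% FBS were plated overnight, then exposed to compound for 6 d at 37°C (0–10,000 nM final, 2.5-fold, 10 points, 0.2% DMSO). Viability was read by Cell-Titer Glo luminescence.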

The IC50 is the concentration needed to halve the response being measured. A high value points to weaker potency. For `CN(C(=O)c1ccc2nc(N)c3cnn(C)c3c2c1)[C@@H]1COC(C)(C)c2cc(-c3cscn3)ccc21` [Example 42, N-((4S)-1,1-dimethyl-7-(1,3-thiazol-4-yl)isochroman-4-yl)(4-amino-1-methylpyrazolo[4,5-c]quinolin-8-yl)-N-methylformamide], the IC50 in experiment [1] came to 4.4 nM; in experiment [2], 1140 nM; in experiment [3], 6.1 nM; in experiment [4], 1760 nM.
The corresponding values for `CN(C(=O)c1ccc2nc(N)c3ccncc3c2c1)C1COC(C)(C)c2cc(C(F)(F)F)ccc21` (centres unmarked) [Example 22, 5-amino-N-(1,1-dimethyl-7-(trifluoromethyl)isochroman-4-yl)-N-methylbenzo[c][2,6]naph thyridine-9-carboxamide] are 13.4 nM, 771 nM, 25.5 nM and 1250 nM.
Take `CN(C(=O)c1ccc2nc(N)c3c(c2c1)COC3)C1COC(C)(C)c2cc(C(F)(F)F)ccc21` (centres unmarked) [Example 8, 4-Amino-N-(1,1-dimethyl-7-(trifluoromethyl)isochroman-4-yl)-N-methyl-2,3-dihydrofuro[3,4-c]quinoline-8-carboxamide]: the half-inhibitory concentration (IC50) in experiment [1] came to 16 nM; in experiment [2], 3250 nM; in experiment [3], 25.2 nM; in experiment [4], 3510 nM.
Taken in the same sequence, the figures for `CN(C(=O)c1ccc2nc(N)c3cnn(C)c3c2c1)[C@@H]1COC(C)(C)c2cc(N3CCNCC3)ccc21` [Example 83] were 103 nM, 12700 nM, 102 nM and 10500 nM.
`CN(C(=O)c1cc2c3c(c(N)nc2cn1)COC3)[C@@H]1COC(C)(C)c2cc(C(F)(F)F)ccc21` [Example 26, (S)-4-Amino-N-(1,1-dimethyl-7-(trifluoromethyl)isochroman-4-yl)-N-methyl-1,3-dihydrofuro[3,4-c][1,7]naphthyridine-8-carboxamide]: the IC50 in experiment [1] was determined as 11 nM; in experiment [2], 1310 nM; in experiment [3], 14.9 nM; in experiment [4], 2050 nM.
For the compound `CN(C(=O)c1cc2c(cc1F)nc(N)c1cnn(C)c12)C1COC(C)(C)c2cc(Br)ccc21` (centres unmarked) [Example 13, (4-Amino-7-fluoro-1-methylpyrazolo[4,5-c]quinolin-8-yl)-N-(7-bromo-1,1-dimethylisochroman-4-yl)-N-methylformamide], the IC50 in experiment [1] was found to be 10.9 nM; in experiment [2], 1070 nM; in experiment [3], 18.9 nM; in experiment [4] it was 720 nM.
As for `CN(C(=O)c1ccc2nc(N)c3cnn(C)c3c2c1)[C@@H]1COC(C)(C)c2cc(C(F)(F)F)ccc21` [Example 16, (S)-4-amino-N-(1,1-dimethyl-7-(trifluoromethyl)isochroman-4-yl)-N,1-dimethyl-1H-pyrazolo[4,3-c]quinoline-8-carboxamide], the IC50 in experiment [1] is 3.7 nM; in experiment [2], 682 nM; in experiment [3], 4.7 nM; in experiment [4] it was 487 nM.
The corresponding values for `Cc1nn(C)c2c1c(N)nc1ccc(C(=O)N(C)[C@@H]3COC(C)(C)c4cc(C(F)(F)F)ccc43)cc12` [Example 35, (S)-4-amino-N-(1,1-dimethyl-7-(trifluoromethyl)isochroman-4-yl)-N,1,3-trimethyl-1H-pyrazolo[4,3-c]quinoline-8-carboxamide] are 15 nM, 858 nM, 24.2 nM and 2100 nM.
On to `CC1OCc2c1c(N)nc1cnc(C(=O)N(C)C3COC(C)(C)c4cc(C(F)(F)F)ccc43)cc21` (centres unmarked) [Example 18, 4-Amino-N-(1,1-dimethyl-7-(trifluoromethyl)isochroman-4-yl)-N,3-dimethyl-1,3-dihydrofuro[3,4-c][1,7]naphthyridine-8-carboxamide], for which the IC50 in experiment [1] is 38.4 nM; in experiment [2], 3970 nM; in experiment [3], 62.9 nM; in experiment [4], 3080 nM.
With `CC1OCc2c1c(N)nc1ccc(C(=O)N(C)C3COC(C)(C)c4cc(C(F)(F)F)ccc43)cc21` (centres unmarked) [Example 12, 4-Amino-N-(1,1-dimethyl-7-(trifluoromethyl)isochroman-4-yl)-N,3-dimethyl-1,3-dihydrofuro[3,4-c]quinoline-8-carboxamide], the IC50 was found to be 21.2 nM in experiment [1], 1990 nM in experiment [2], 32.3 nM in experiment [3] and 2610 nM in experiment [4].
In the case of `CN(C(=O)c1ccc2nc(N)c3c(c2c1)COC3)C1COC(C)(C)c2cc(-c3ccnn3C)ccc21` (centres unmarked) [Example 10, 4-Amino-N-(1,1-dimethyl-7-(1-methyl-1H-pyrazol-5-yl)isochroman-4-yl)-N-methyl-1,3-dihydrofuro[3,4-c]quinoline-8-carboxamide], the IC50 in experiment [1] was found to be 10.1 nM; in experiment [2] it was 3740 nM; in experiment [3] it was 18.3 nM; in experiment [4], 2060 nM.
Turning to `CN(C(=O)c1ccc2nc(N)c3cnn(C)c3c2c1)C1COC(C)(C)c2cc(-c3cccc4c3cnn4C)ccc21` (centres unmarked) [Example 46, 4-amino-N-(1,1-dimethyl-7-(1-methyl-1H-indazol-4-yl)isochroman-4-yl)-N,1-dimethyl-1H-pyrazolo[4,3-c]quinoline-8-carboxamide], the IC50 was 4.3 nM in experiment [1], 1050 nM in experiment [2], 7.9 nM in experiment [3] and 1100 nM in experiment [4].
In the case of `CN(C(=O)c1ccc2nc(N)c3cnn(C)c3c2c1)[C@@H]1COC(C)(C)c2cc(-c3cnn(C(F)(F)F)c3)ccc21` [Example 32, (S)-4-amino-N-(1,1-dimethyl-7-(1-(trifluoromethyl)-1H-pyrazol-4-yl)isochroman-4-yl)-N,1-dimethyl-1H-pyrazolo[4,3-c]quinoline-8-carboxamide], the IC50 in experiment [1] was 5.7 nM; in experiment [2], 1890 nM; in experiment [3], 6.8 nM; in experiment [4] it was 1530 nM.
The corresponding values for `CN(C(=O)c1ccc2nc(N)c3c(c2c1)CCO3)C1COC(C)(C)c2cc(C(F)(F)F)ccc21` (centres unmarked) [Example 4, 4-Amino-N-(1,1-dimethyl-7-(trifluoromethyl)isochroman-4-yl)-N-methyl-1,2-dihydrofuro[2,3-c]quinoline-8-carboxamide] are 1090 nM, 3270 nM, 2260 nM and 8140 nM.
The corresponding values for `CN(C(=O)c1ccc2nc(N)c3c(cnn3C)c2c1)[C@@H]1COC(C)(C)c2cc(C(F)(F)F)ccc21` [Example 21, (S)-4-amino-N-(1,1-dimethyl-7-(trifluoromethyl)isochroman-4-yl)-N,3-dimethyl-3H-pyrazolo[3,4-c]quinoline-8-carboxamide] are 20.8 nM, 2820 nM, 33.7 nM and 4370 nM.
The corresponding values for `CN(C(=O)c1cc2c(cc1C(F)(F)F)nc(N)c1cnn(C)c12)[C@@H]1COC(C)(C)c2cc(C(F)(F)F)ccc21` [Example 38, N-[(4S)-1,1-dimethyl-7-(trifluoromethyl)isochroman-4-yl] [4-amino-1-methyl-7-(trifluoromethyl)pyrazolo[4,5-c]quinolin-8-yl]-N-methylformamide] are 8.1 nM, 2050 nM, 15 nM and 1470 nM.
Turning to `CN(C(=O)c1ccc2nc(N)c3c(c2c1)CCOC3)[C@@H]1COC(C)(C)c2cc(C(F)(F)F)ccc21` [Example 23], the IC50 in experiment [1] worked out at 99.4 nM; in experiment [2], 3170 nM; in experiment [3] it was 79.5 nM; in experiment [4] it was 4860 nM.
The corresponding values for `CN(C(=O)c1cc2c3c(c(N)nc2cn1)COC3)C1COC(C)(C)c2cc(C(F)(F)F)ccc21` (centres unmarked) [Example 5, 4-Amino-N-(1,1-dimethyl-7-(trifluoromethyl)isochroman-4-yl)-N-methyl-1,3-dihydrofuro[3,4-c][1,7]naphthyridine-8-carboxamide] are 28.2 nM, 4980 nM, 37.1 nM and 7770 nM.
The corresponding values for `CN(C(=O)c1cc2c(cc1F)nc(N)c1cnn(C)c12)C1COC(C)(C)c2cc(-c3ccnn3C)ccc21` (centres unmarked) [Example 14, (4-amino-7-fluoro-1-methylpyrazolo[4,5-c]quinolin-8-yl)-N-[1,1-dimethyl-7-(1-methylpyrazol-5-yl)isochroman-4-yl]-N-methylformamide] are 4.1 nM, 309 nM, 5.9 nM and 286 nM.
With `CN(C(=O)c1cc2c(cc1F)nc(N)c1cnn(C)c12)C1COC(C)(C)c2cc(C(F)(F)F)ccc21` (centres unmarked) [Example 15, 4-Amino-N-(1,1-dimethyl-7-(trifluoromethyl)isochroman-4-yl)-7-fluoro-N,1-dimethyl-1H-pyrazolo[4,3-c]quinoline-8-carboxamide], the half-inhibitory concentration (IC50) in experiment [1] is 13.6 nM; in experiment [2] it was 795 nM; in experiment [3], 25.9 nM; in experiment [4], 446 nM.

The values are drawn from patent EP4803519A1, “NOVEL PRMT5 INHIBITOR AND USE THEREOF” (Shanghai Apeiron Therapeutics Company Limited, priority 2023, dated 2025).
